{"source": "patent US12599597B2", "about": "“Substituted N-benzhydrylacetamide inhibitors of jumanji domain histone demethylases for the treatment of cancer” (University of Kentucky Research Foundation, priority 2020, dated 2026)", "test_in_all_cases": "Histone demethylase assay, purified enzyme panel", "format_in_all_cases": "biochemical", "details_in_all_cases": "Reference inhibitor", "key": {"[1]": {"biological_target": "T1, JMJD2A (KDM4A) (Homo sapiens, UniProt O75164)", "T1 sequence (O75164 1-1064)": "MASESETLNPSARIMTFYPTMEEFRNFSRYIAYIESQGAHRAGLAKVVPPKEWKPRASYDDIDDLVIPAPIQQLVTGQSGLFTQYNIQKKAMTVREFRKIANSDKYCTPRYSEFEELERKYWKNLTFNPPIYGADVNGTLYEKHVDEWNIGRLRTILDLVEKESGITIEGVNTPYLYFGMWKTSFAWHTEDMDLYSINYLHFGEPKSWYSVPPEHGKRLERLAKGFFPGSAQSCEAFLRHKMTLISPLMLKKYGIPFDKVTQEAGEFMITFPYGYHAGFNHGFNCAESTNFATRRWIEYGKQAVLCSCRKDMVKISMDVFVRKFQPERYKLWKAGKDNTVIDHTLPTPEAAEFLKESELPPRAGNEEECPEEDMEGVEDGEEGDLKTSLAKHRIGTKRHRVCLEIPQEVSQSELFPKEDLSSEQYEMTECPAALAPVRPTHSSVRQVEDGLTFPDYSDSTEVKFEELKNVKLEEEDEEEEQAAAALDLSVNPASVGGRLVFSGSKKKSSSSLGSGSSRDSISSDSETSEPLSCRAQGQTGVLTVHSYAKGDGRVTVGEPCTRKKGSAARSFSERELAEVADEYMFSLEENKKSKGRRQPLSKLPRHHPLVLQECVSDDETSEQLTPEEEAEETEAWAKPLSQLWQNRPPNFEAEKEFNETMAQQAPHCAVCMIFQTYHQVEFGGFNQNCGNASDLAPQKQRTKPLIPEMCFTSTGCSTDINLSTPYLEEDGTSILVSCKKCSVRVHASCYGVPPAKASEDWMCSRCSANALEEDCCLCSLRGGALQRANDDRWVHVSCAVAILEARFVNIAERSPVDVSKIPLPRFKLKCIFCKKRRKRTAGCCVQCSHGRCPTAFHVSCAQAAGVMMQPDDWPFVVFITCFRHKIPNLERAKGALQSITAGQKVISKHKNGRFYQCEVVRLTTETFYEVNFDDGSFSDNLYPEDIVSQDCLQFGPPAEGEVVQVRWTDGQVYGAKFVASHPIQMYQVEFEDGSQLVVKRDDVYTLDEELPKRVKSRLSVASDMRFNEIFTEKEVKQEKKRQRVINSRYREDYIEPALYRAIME", "excerpt": "(§1) Histone Demethylase Assay\n(§2) To further examine the effects of 58B1 on histone demethylase, we screened a panel of purified histone demethylases was screened."}, "[2]": {"biological_target": "T2, JMJD2C (KDM4C) (Homo sapiens, UniProt Q9H3R0)", "T2 sequence (Q9H3R0 1-1056)": "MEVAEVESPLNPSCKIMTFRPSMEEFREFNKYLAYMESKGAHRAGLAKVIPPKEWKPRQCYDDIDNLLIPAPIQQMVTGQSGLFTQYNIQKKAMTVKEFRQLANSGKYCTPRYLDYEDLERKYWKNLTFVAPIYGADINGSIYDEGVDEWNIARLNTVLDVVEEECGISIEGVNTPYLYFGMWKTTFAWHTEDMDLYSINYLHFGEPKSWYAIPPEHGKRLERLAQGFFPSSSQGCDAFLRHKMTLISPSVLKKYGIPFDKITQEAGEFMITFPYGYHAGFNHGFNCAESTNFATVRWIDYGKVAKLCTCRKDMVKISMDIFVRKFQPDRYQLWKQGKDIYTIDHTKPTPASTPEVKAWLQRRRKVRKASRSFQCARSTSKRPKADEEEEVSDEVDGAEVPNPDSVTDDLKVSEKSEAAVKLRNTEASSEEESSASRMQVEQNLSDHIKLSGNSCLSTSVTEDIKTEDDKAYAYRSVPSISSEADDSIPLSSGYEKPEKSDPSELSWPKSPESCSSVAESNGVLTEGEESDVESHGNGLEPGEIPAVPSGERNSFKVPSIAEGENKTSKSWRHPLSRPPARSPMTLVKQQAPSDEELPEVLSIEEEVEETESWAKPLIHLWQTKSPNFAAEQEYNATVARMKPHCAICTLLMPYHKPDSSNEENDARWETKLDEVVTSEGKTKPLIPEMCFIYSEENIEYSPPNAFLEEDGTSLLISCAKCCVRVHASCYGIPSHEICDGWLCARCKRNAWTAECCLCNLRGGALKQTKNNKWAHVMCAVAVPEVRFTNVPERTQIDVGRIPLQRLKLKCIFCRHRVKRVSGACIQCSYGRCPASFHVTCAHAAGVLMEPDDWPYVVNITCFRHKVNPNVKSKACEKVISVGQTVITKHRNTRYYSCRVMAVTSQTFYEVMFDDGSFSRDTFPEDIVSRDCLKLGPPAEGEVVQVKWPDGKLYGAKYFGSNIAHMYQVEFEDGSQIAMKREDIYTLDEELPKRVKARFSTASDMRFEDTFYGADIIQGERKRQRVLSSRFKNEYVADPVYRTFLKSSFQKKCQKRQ", "excerpt": "as §1, §2"}, "[3]": {"biological_target": "T3, FBXL10 (KDM2B) (Homo sapiens, UniProt Q8NHM5)", "T3 sequence (Q8NHM5 1-1336)": "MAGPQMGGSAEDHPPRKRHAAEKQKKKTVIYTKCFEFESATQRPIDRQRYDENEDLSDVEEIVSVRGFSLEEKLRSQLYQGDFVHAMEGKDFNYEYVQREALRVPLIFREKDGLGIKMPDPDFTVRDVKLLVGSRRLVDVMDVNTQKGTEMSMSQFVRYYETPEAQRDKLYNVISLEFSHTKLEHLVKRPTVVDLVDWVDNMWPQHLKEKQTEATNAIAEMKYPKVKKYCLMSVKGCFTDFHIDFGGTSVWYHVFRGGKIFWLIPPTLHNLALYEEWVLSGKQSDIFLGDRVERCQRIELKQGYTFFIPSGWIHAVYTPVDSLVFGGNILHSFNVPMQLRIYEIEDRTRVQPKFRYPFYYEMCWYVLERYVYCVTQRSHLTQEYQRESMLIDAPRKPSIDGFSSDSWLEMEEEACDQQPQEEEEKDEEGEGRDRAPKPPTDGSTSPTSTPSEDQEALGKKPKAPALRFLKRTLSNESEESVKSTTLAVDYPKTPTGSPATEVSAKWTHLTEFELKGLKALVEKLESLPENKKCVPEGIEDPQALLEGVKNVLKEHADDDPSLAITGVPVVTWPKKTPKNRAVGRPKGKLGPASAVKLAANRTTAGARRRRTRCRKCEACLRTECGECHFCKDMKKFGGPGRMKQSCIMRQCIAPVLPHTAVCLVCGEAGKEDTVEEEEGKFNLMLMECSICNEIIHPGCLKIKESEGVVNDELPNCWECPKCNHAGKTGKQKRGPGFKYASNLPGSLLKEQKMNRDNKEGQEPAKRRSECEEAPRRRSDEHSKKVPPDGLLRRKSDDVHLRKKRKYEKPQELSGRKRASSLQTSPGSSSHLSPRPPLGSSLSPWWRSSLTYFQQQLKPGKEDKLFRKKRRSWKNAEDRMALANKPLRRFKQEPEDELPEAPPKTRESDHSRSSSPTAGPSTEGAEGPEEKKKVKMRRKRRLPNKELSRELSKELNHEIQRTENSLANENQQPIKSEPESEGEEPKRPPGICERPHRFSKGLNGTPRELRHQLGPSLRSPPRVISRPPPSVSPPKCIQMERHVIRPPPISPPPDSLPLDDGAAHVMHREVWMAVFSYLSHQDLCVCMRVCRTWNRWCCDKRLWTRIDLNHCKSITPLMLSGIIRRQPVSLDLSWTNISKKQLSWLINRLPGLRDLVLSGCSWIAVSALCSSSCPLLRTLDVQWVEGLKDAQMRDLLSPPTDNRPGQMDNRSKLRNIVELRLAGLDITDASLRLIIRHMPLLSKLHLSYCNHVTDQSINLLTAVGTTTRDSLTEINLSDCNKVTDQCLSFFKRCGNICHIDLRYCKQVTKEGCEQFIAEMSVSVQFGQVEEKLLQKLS", "excerpt": "as §1, §2"}}}
{"smiles": "O=C(O)c1ccnc(C(=O)O)c1", "note": "[2,4-Pyridine Dicarboxylic Acid, reference compound]", "values": [{"measurement": "% Inhibition", "setting": "[1]", "value": 100, "unit": "%"}, {"measurement": "% Inhibition", "setting": "[2]", "value": 100, "unit": "%"}, {"measurement": "% Inhibition", "setting": "[3]", "value": 99, "unit": "%"}]}
